According to ChEMBL document CHEMBL5120870, “Calysepins I-VII, Hexasaccharide Resin Glycosides from Calystegia sepium and Their Cytotoxic Evaluation” (J Nat Prod, 2022):

Test system: A549
Assay: Cytotoxicity against human A549 cells incubated for 24 hrs by CCK8 assay
Format: functional, cell-based
Settings: A549, 24 h

**Q.** `CCCCC[C@@H]1CCCCCCCCCC(=O)O[C@H]2[C@H](OC[C@H]3O[C@@H](O[C@H]4[C@H](O)[C@@H](CO)O[C@@H](O[C@H]5[C@H](O1)O[C@H](C)[C@@H](O)[C@@H]5O)[C@@H]4O[C@@H]1O[C@@H](C)[C@H](OC(=O)[C@@H](C)CC)[C@@H](O[C@@H]4O[C@H](CO)[C@@H](OC(=O)[C@@H](C)CC)[C@H](O)[C@H]4O)[C@H]1OC(=O)[C@@H](C)CC)[C@H](O)[C@@H](O)[C@@H]3OC(=O)[C@@H](C)[C@H](C)O)O[C@H](CO)[C@@H](OC(=O)[C@@H](C)CC)[C@@H]2O` was tested. Which IC50 did it give?
**A.** 5.2 µM
